{"source": "ChEMBL document CHEMBL1155736", "about": "“Suberedamines A and B, new bromotyrosine alkaloids from a sponge Suberea species” (J Nat Prod, 2001)", "key": {"L1210": {"system": "L1210", "experiment": "Cytotoxicity against mouse L1210 cells", "assay_type": "functional, cell-based"}, "KB": {"system": "KB", "experiment": "Cytotoxicity against human KB cells", "assay_type": "functional, cell-based"}, "Micrococcus luteus": {"system": "Micrococcus luteus", "experiment": "Antibacterial activity against Micrococcus luteus", "assay_type": "functional"}}, "data": [{"smiles": "COc1ccc(C[C@H](N)C(=O)NCCc2cc(Br)c(OCCCN(C)C)c(Br)c2)cc1Br", "note": "[SUBEREDAMINE A]", "values": [{"measurement": "IC50", "setting": "L1210", "value": 8, "unit": "µg/mL"}, {"measurement": "IC50", "setting": "KB", "value": 9, "unit": "µg/mL"}, {"measurement": "MIC", "setting": "Micrococcus luteus", "value": 12.6, "unit": "µg/mL"}]}, {"smiles": "CN[C@@H](Cc1ccc(OC)c(Br)c1)C(=O)NCCc1cc(Br)c(OCCCN(C)C)c(Br)c1", "note": "[SUBEREDAMINE B]", "values": [{"measurement": "IC50", "setting": "L1210", "value": 8.6, "unit": "µg/mL"}, {"measurement": "IC50", "setting": "KB", "value": "> 10", "unit": "µg/mL"}, {"measurement": "MIC", "setting": "Micrococcus luteus", "value": 12.6, "unit": "µg/mL"}]}]}
